Molecular target: Mcl-1 protein (Homo sapiens, UniProt Q07820)
Assay: Inhibition of Mcl-1 by the fluorescence polarisation technique
Type: binding
Conditions: @ 10 μM test compound; partial inhibitors
Method: The relative binding potency of each compound was determined via fluorescence Polarisation (FP). The method utilised a Fluorescein labelled ligand Fluorescein-βAla-Ahx-[A-REIGAQLRRMADDLNAQY (SEQ ID NO: 1)]-OH; mw 2,765) which binds to the Mcl-1 protein (such that corresponds to the UniProtKB® primary accession number: Q07820) leading to an increased anisotropy measured in milli-polarisation (mP) units using a reader. The addition of a compound which binds competitively to the same site as the ligand will result in a greater proportion of unbound ligand in the system indicated by a decrease in mP units.
Method 1: An 11 point serial dilution of each compound was prepared in DMSO and 2 μl transferred into flat bottomed, low binding, 384-well plate (final DMSO concentration 5%). 38 μl of buffer (10 mM 4-(2-hydroxyethyl)-1-piperazineethanesulfonic acid [HEPES], 150 mM NaCl, 0.05% Tween 20, pH 7.4), containing the Fluorescein labelled ligand (final concentration 1 nM) and Mcl-1 protein (final concentration 5 nM) was then added.
(§1) Assay plates were incubated ˜2 hours at room temperature before FP was measured on a […] Synergy2 reader (Ex. 528 nm, Em. 640 nm, Cut off 510 nm) and mP units calculated. The binding of increasing doses of test compound was expressed as a percentage reduction in mP compared to a window established between ‘5% DMSO only’ and ‘100% inhibition’ controls. 11-point dose response curves were plotted with XL-Fit software using a 4-Parameter Logistic Model (Sigmoidal Dose-Response Model) and the inhibitory concentrations that gave a 50% reduction in mP (IC50) were determined. Results obtained using Method 1 are presented in Table 1 below; IC50 of Mcl-1 inhibition obtained using Method 1 are not underlined.
Method 2: An 11 point serial dilution of each compound was prepared in DMSO and 2 μl transferred into flat bottomed, low binding, 384-well plate (final DMSO concentration 5%). 38 μl of buffer (20 mM Na2HPO4, 1 mM EDTA, 50 mM NaCl, pH 7.4), containing the Fluorescein labelled ligand (final concentration 10 nM) and Mcl-1 protein (final concentration 10 nM) was then added.
as §1, with “inhibition’ controls (50 μM unlabelled ligand).” for “inhibition’ controls.”, “Method 2” for “Method 1”, “are” for “are not”

Chain of Mcl-1 protein (Q07820 whole entry): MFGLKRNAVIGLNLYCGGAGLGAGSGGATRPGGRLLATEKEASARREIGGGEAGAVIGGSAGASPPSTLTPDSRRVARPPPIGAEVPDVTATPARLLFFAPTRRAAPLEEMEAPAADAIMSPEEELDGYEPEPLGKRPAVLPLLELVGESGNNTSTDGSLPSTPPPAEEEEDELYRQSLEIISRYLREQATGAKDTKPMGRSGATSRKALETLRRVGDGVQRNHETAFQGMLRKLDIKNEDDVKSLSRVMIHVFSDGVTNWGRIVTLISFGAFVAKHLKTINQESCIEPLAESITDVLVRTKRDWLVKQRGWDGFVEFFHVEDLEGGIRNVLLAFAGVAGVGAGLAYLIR

Row | percentage fluorescence polarization inhibition [% @ 10 μM] | Structure (SMILES)
1 | 51.9 | COc1ccccc1CC(Oc1cccc2cc(-c3ccco3)n(-c3ccc(OCCN4CCN(C)CC4)c(Cl)c3C)c12)C(=O)O [Example 58, (2R)-2-{[(1Ra)-1-{3-chloro-2-methyl-4-[2-(4-methylpiperazin-1-yl)ethoxy]phenyl}-2-(furan-2-yl)-1H-indol-7-yl]oxy}-3-(2-methoxyphenyl)propanoic acid]

Same assay, conditions: @ 50 μM test compound; partial inhibitors; 50 µM

Row | percentage fluorescence polarization inhibition [% @ 50 μM] | Structure (SMILES)
2 | 67 | CCc1c(-c2cccc(Cl)c2C)c2c(N[C@H](Cc3ccccc3)C(=O)O)ncnc2n1C(C)C [Example 38, N-[(5Ra)-5-(3-chloro-2-methylphenyl)-6-ethyl-7-(propan-2-yl)-7H-pyrrolo[2,3-d]pyrimidin-4-yl]-D-phenylalanine]
3 | 77.75 | CCc1c(-c2cccc(Cl)c2C)c2c(N[C@H](Cc3ccccc3)C(=O)O)ncnc2n1C(C)C [Example 39, N-[(5Sa)-5-(3-chloro-2-methylphenyl)-6-ethyl-7-(propan-2-yl)-7H-pyrrolo[2,3-d]pyrimidin-4-yl]-D-phenylalanine]

Same assay, conditions: Method 1 (not underlined) or Method 2 (underlined); underlining not visible; first value where cell prints two; read-out: IC50 (M) Mcl-1 FP

Row | IC50 [M] | Structure (SMILES)
4 | 8.2e-07 | COc1ccccc1CC(Oc1cccc2oc(-c3ccc(F)cc3)c(-c3ccc(OCCN4CCN(C)CC4)c(Cl)c3C)c12)C(=O)O [Example 62, (2R)-2-{[(3Sa)-3-{3-chloro-2-methyl-4-[2-(4-methylpiperazin-1-yl)ethoxy]phenyl}-2-(4-fluorophenyl)-1-benzofuran-4-yl]oxy}-3-(2-methoxyphenyl)propanoic acid]
5 | 1.8e-05 | C=CCn1c(CC)c(-c2cccc(Cl)c2C)c2c(NC(Cc3ccccc3)C(=O)O)ncnc21 (single isomer, unassigned) [Example 24, N-[(5Ra)-5-(3-chloro-2-methylphenyl)-6-ethyl-7-(prop-2-en-1-yl)-7H-pyrrolo[2,3-d]pyrimidin-4-yl]-D-phenylalanine]
6 | 3.3e-06 | CCc1c(-c2cccc3ccccc23)c2c(N[C@H](Cc3ccccc3)C(=O)O)ncnc2n1CCCc1ccccc1 (single isomer, unassigned) [Example 19, N-[6-ethyl-5-(naphthalen-1-yl)-7-(3-phenylpropyl)-7H-pyrrolo[2,3-d]pyrimidin-4-yl]-D-phenylalanine]
7 | 1.2e-05 | CCc1c(-c2cccc3ccccc23)c2c(N[C@H](Cc3ccccc3)C(=O)O)ncnc2n1CCOc1cccc2ccccc12 (single isomer, unassigned) [Example 14, N-{6-ethyl-5-(naphthalen-1-yl)-7-[2-(naphthalen-1-yloxy)ethyl]-7H-pyrrolo[2,3-d]pyrimidin-4-yl}-D-phenylalanine]
8 | 6.6e-07 | CCc1c(-c2cccc3ccccc23)c2c(N[C@H](Cc3ccccc3)C(=O)O)ncnc2n1Cc1ccccc1 (single isomer, unassigned) [Example 13, N-[7-benzyl-6-ethyl-5-(naphthalen-1-yl)-7H-pyrrolo[2,3-d]pyrimidin-4-yl]-D-phenylalanine]
9 | 9.1e-06 | C=CCn1c(CC)c(-c2cccc(Cl)c2C)c2c(NC(Cc3ccccc3)C(=O)O)ncnc21 (single isomer, unassigned) [Example 25, N-[(5Sa)-5-(3-chloro-2-methylphenyl)-6-ethyl-7-(prop-2-en-1-yl)-7H-pyrrolo[2,3-d]pyrimidin-4-yl]-D-phenylalanine]
10 | 5.3e-07 | CCc1c(-c2cccc(Cl)c2C)c2c(NC(Cc3ccccc3)C(=O)O)ncnc2n1Cc1ccccc1 (single isomer, unassigned) [Example 37, N-[7-benzyl-(5Sa)-5-(3-chloro-2-methylphenyl)-6-ethyl-7H-pyrrolo[2,3-d]pyrimidin-4-yl]-D-phenylalanine]
11 | 1.8e-06 | CCc1c(-c2cccc3ccccc23)c2c(N[C@H](Cc3ccccc3)C(=O)O)ncnc2n1CCc1ccccc1 (single isomer, unassigned) [Example 16, N-[6-ethyl-5-(naphthalen-1-yl)-7-(2-phenylethyl)-7H-pyrrolo[2,3-d]pyrimidin-4-yl]-D-phenylalanine]
12 | 1.6e-06 | COc1ccccc1-c1nccc(COc2ccccc2CC(Oc2cccc3sc(-c4ccc(F)cc4)c(-c4ccc(OCCN5CCN(C)CC5)c(Cl)c4C)c23)C(=O)O)n1 (single isomer, unassigned) [Example 52]
13 | 1.2e-06 | COc1ccccc1-c1nccc(COc2ccccc2CC(Oc2cccc3c2c(-c2ccc(OCCN4CCN(C)CC4)c(Cl)c2C)c(-c2ccc(F)cc2)n3C)C(=O)O)n1 (single isomer, unassigned) [Example 68]
14 | 8.9e-09 | Cc1c(-c2c(-c3ccc(F)cc3)oc3ncnc(O[C@H](Cc4ccccc4OCc4ccnn4C(C)(C)C)C(=O)O)c23)ccc(OCCN(C)C)c1Cl [Example 6, (2R)-3-{2-[(1-tert-butyl-1H-pyrazol-5-yl)methoxy]phenyl}-2-{[5-{3-chloro-4-[2-(dimethylamino)ethoxy]-2-methylphenyl}-6-(4-fluorophenyl)furo[2,3-d]pyrimidin-4-yl]oxy}propanoic acid]
15 | 1.2e-07 | CCc1sc2cccc(CC(Cc3ccccc3)C(=O)O)c2c1-c1ccc(O)c(Cl)c1C (stereo not drawn) [Example 54, 2-benzyl-3-[3-(3-chloro-4-hydroxy-2-methylphenyl)-2-ethyl-1-benzothiophen-4-yl]propanoic acid]
16 | 1.7e-07 | COc1ccccc1CC(Oc1cccc2c(Cl)c(-c3ccc(F)cc3)n(-c3ccc(OCCN4CCN(C)CC4)c(Cl)c3C)c12)C(=O)O [Example 57, (2R)-2-{[3-chloro-(1Sa)-1-{3-chloro-2-methyl-4-[2-(4-methylpiperazin-1-yl)ethoxy]phenyl}-2-(4-fluorophenyl)-1H-indol-7-yl]oxy}-3-(2-methoxyphenyl)propanoic acid]
17 | 8.6e-07 | CCc1c(-c2ccc(OCCN3CCN(C)CC3)c(Cl)c2C)c2c(OC(Cc3ccccc3)C(=O)O)ncnc2n1Cc1ccccc1 [Example 40, (2R)-2-[(7-benzyl-(5Sa)-5-{3-chloro-2-methyl-4-[2-(4-methylpiperazin-1-yl)ethoxy]phenyl}-6-ethyl-7H-pyrrolo[2,3-d]pyrimidin-4-yl)oxy]-3-phenylpropanoic acid]
18 | 6.4e-06 | CCc1c(-c2cccc(Cl)c2C)c2c(NC(Cc3ccccc3)C(=O)O)ncnc2n1CCC1CCCC1 (single isomer, unassigned) [Example 30, N-[(5Ra)-5-(3-chloro-2-methylphenyl)-7-(2-cyclopentylethyl)-6-ethyl-7H-pyrrolo[2,3-d]pyrimidin-4-yl]-D-phenylalanine]
19 | 7.9e-07 | CCc1c(-c2cccc(Cl)c2C)c2c(NC(Cc3ccccc3)C(=O)O)ncnc2n1CCC1CCCC1 (single isomer, unassigned) [Example 31, N-[(5Sa)-5-(3-chloro-2-methylphenyl)-7-(2-cyclopentylethyl)-6-ethyl-7H-pyrrolo[2,3-d]pyrimidin-4-yl]-D-phenylalanine]
20 | 1.3e-05 | C=CCCn1c(Br)c(-c2cccc(Cl)c2C)c2c(NC(Cc3ccccc3)C(=O)O)ncnc21 (single isomer, unassigned) [Example 41, N-[6-bromo-7-(but-3-en-1-yl)-(5Ra)-5-(3-chloro-2-methylphenyl)-7H-pyrrolo[2,3-d]pyrimidin-4-yl]-D-phenylalanine]
21 | 6.4e-06 | CCc1c(-c2cccc(Cl)c2C)c2c(NC(Cc3ccccc3)C(=O)O)ncnc2n1Cc1ccc(OC)cc1 (single isomer, unassigned) [Example 34, N-[(5Ra)-5-(3-chloro-2-methylphenyl)-6-ethyl-7-(4-methoxybenzyl)-7H-pyrrolo[2,3-d]pyrimidin-4-yl]-D-phenylalanine]
22 | 8.7e-06 | CCc1c(-c2cccc(Cl)c2C)c2c(NC(Cc3ccccc3)C(=O)O)ncnc2n1C [Example 21, N-[(5Sa)-5-(3-chloro-2-methylphenyl)-6-ethyl-7-methyl-7H-pyrrolo[2,3-d]pyrimidin-4-yl]-D-phenylalanine]
23 | 5.6e-07 | CCc1c(-c2cccc3ccccc23)c2c(N[C@H](Cc3ccccc3)C(=O)O)ncnc2n1Cc1ccccc1 (single isomer, unassigned) [Example 12, N-[7-benzyl-6-ethyl-5-(naphthalen-1-yl)-7H-pyrrolo[2,3-d]pyrimidin-4-yl]-D-phenylalanine]

Same assay, conditions: value after '/'; presumably the other FP method (Method 1 / Method 2); read-out: IC50 (M) Mcl-1 FP, second value of the cell

Row | IC50 [M] | Structure (SMILES)
24 | 3.3e-08 | CCc1c(-c2ccc(OCCN3CCN(C)CC3)c(Cl)c2C)c2c(OC(Cc3ccccc3)C(=O)O)ncnc2n1Cc1ccccc1 [Example 40, (2R)-2-[(7-benzyl-(5Sa)-5-{3-chloro-2-methyl-4-[2-(4-methylpiperazin-1-yl)ethoxy]phenyl}-6-ethyl-7H-pyrrolo[2,3-d]pyrimidin-4-yl)oxy]-3-phenylpropanoic acid]

Reference: US10323041B2, “Bicyclic derivatives, a process for their preparation and pharmaceutical compositions containing them” (LES LABORATOIRES SERVIER, priority 2015, dated 2019)
